Laboratory results as given in article PMC5773651, “Customised in vitro model to detect human metabolism-dependent idiosyncratic drug-induced liver injury” (Archives of Toxicology, 2017).
Where two headings read alike, the source gives them in different places. Marks after values point to notes of the source that are not given here.

Assays:
HepG2 cells [1] = assay: Cell viability (PI), IC50, control HepG2 cells; type: cell-based; conditions: Homo sapiens; control non-transduced HepG2; 24 h; unit inferred, tested range in µM; read-out: IC50 (cell viability), C
[2] = system: HepG2 cells transduced with AdCYP2C19; assay: Cell viability (PI), IC50, AdCYP2C19-HepG2; type: cell-based; conditions: Homo sapiens, unit inferred, tested range in µM
Protocol: (§1) For subculturing purposes, cells were detached by treatment with 0.25% trypsin/0.02% EDTA at 37 °C. For the adenovirus infection studies, cells were seeded in 96-well plates (5000 cells/well) and adenovirus-containing medium was added 48 h later. After 24 h, cells were transferred to the adenovirus-free medium and cultured for an additional 24-h period prior to the incubations performed with the test chemicals. To optimise the expression of the functional enzymes in the adenovirus-transduced HepG2 (Ad-HepG2) cells, different doses (MOI, multiplicity of infection, defined as plaque formation units per cell) of each adenovirus were tested.
(§2) The drugs included in the study were chosen based on previous information about their hepatotoxicity. Information on the potential mechanisms implicated in the toxicity of each compound and the major enzymes involved in their metabolism is summarised in Table 1. HepG2 or Ad-HepG2 (48 h post-infection) cells were exposed for 24 h to eight concentrations of the tested compounds. Each experimental condition was repeated independently three times (with three wells measured each time). The stock solutions of compounds were prepared in DMSO and were conveniently diluted in the culture medium to obtain the desired final concentrations. The final DMSO concentration in the culture medium was 0.5% (v/v), and the control cultures were treated with the same amount of solvent.
(§3) Following treatments, cells were simultaneously loaded with several fluorescent dyes to measure multiple biomarkers of cell toxicity. […] Information about the probes is summarised in Supplementary Table S2.
(§4) After incubating with dyes, cells were imaged by the Scan^R system (Olympus, Germany). Dyes were excited, and their fluorescence was monitored at the excitation and emission wavelengths at appropriate filter settings. The collected images were analysed using the Scan^R analysis module, which allows the simultaneous quantification of subcellular structures that are stained by different fluorescent probes.

[3] = system: HepG2 cells transduced with AdCYP3A4; assay: Cell viability (PI), IC50, AdCYP3A4-HepG2; type: cell-based; conditions: Homo sapiens, unit inferred, tested range in µM
Protocol: as §1, §2, §3, §4

[4] = system: HepG2 cells transduced with AdCYP1A2; assay: Cell viability (PI), IC50, AdCYP1A2-HepG2; type: cell-based; conditions: Homo sapiens, unit inferred, tested range in µM
Protocol: as §1, §2, §3, §4

[5] = system: HepG2 cells transduced with AdCYP3A4; assay: HCS hepatotoxicity assay (MEC, TR), AdCYP3A4-HepG2; type: cell-based, human; conditions: 24 h; for TR: TR = 100 x Cmax/lowest MEC; for MEC Apoptosis / MEC Calcium / MEC MMP / MEC Mitochondrial superoxide / MEC ROS: unit not given, tested range in µM
[6] = system: HepG2 cells transduced with AdCYP2C19; assay: HCS hepatotoxicity assay (MEC, TR), AdCYP2C19-HepG2; type: cell-based, human; conditions: 24 h; for TR: TR = 100 x Cmax/lowest MEC; for MEC Apoptosis / MEC Calcium / MEC MMP / MEC Mitochondrial superoxide / MEC ROS: unit inferred, tested range in µM
Protocol: as §1, §2, §3, §4

[7] = system: HepG2 cells transduced with AdCYP1A2; assay: HCS hepatotoxicity assay (MEC, TR), AdCYP1A2-HepG2; type: cell-based, human; conditions: 24 h; for MEC Apoptosis / MEC Calcium / MEC MMP / MEC Mitochondrial superoxide / MEC ROS: unit inferred, tested range in µM; for TR: TR = 100 x Cmax/lowest MEC
Protocol: as §1, §2, §3, §4

HepG2 cells [8] = conditions: human, 24 h
Protocol: as §1, §2, §3, §4

[9] = ref Atienzar et al. ([2014]), Garside et al. ([2014]), Tolosa et al. ([2012b]); cited from earlier work
[10] = cited from earlier work; for Bioactivation / Enzyme: major enzyme(s) involved in the bioactivation (denoted as *) or detoxification of the drug: previous information; for Toxicity (mechanisms of toxicity): ref Ashrafian et al. [2007], Donato et al. [2009], Fromenty and Pessayre [1997], Rolo et al. [2000], Tolosa et al. [2012b]; for DILI category: ref Gustafsson et al. ([2014])
[11] = system: HepG2 cells transduced with AdCYP2D6; assay: Cell viability (PI), IC50, AdCYP2D6-HepG2; type: cell-based; conditions: Homo sapiens, unit inferred, tested range in µM
Protocol: as §1, §2, §3, §4

[12] = system: HepG2 cells transduced with AdCYP2D6; assay: HCS hepatotoxicity assay (MEC, TR), AdCYP2D6-HepG2; type: cell-based, human; conditions: 24 h; for TR: TR = 100 x Cmax/lowest MEC; for MEC Apoptosis / MEC Calcium / MEC Lipids / MEC MMP / MEC Mitochondrial superoxide / MEC ROS: unit inferred, tested range in µM
Protocol: as §1, §2, §3, §4

## CC(C)C(=O)Nc1ccc([N+](=O)[O-])c(C(F)(F)F)c1 [Flutamide]
HepG2 cells [1]
  IC50: 398 µM
[2]; ADV CYP2C19 x1, 24 h, read-out: IC50 (cell viability), ADV dose x1
  IC50: 344 µM
[2]; ADV CYP2C19 x4, 24 h, read-out: IC50 (cell viability), ADV dose x4
  IC50: 309 µM
[2]; ADV CYP2C19 x10, 24 h, read-out: IC50 (cell viability), ADV dose x10
  IC50: 255 µM
[3]; ADV CYP3A4 x1, 24 h, read-out: IC50 (cell viability), ADV dose x1
  IC50: 219 µM
[3]; ADV CYP3A4 x4, 24 h, read-out: IC50 (cell viability), ADV dose x4
  IC50: 176 µM
[3]; ADV CYP3A4 x10, 24 h, read-out: IC50 (cell viability), ADV dose x10
  IC50: 145 µM
[4]; ADV CYP1A2 x1, 24 h, read-out: IC50 (cell viability), ADV dose x1
  IC50: 384 µM
[4]; ADV CYP1A2 x4, 24 h, read-out: IC50 (cell viability), ADV dose x4
  IC50: 261 µM
[4]; ADV CYP1A2 x10, 24 h, read-out: IC50 (cell viability), ADV dose x10
  IC50: 248 µM
[5]; AdCYP 3A4 1x
  TR: 2.5
  MEC Apoptosis: 500
  MEC Calcium: 250
  MEC MMP: 750
  MEC Mitochondrial superoxide: 500
  MEC ROS: 250
[5]; AdCYP 3A4 4x
  TR: 5.0
  MEC Apoptosis: 250
  MEC Calcium: 250
  MEC MMP: 500
  MEC Mitochondrial superoxide: 250
  MEC ROS: 125
[5]; AdCYP 3A4 10x
  TR: 5.0
  MEC Apoptosis: 125
  MEC Calcium: 250
  MEC MMP: 250
  MEC Mitochondrial superoxide: 125
  MEC ROS: 125
[6]; AdCYP 2C19 1x
  TR: 2.5
  MEC Apoptosis: 250 µM
  MEC Calcium: 250 µM
  MEC MMP: 250 µM
  MEC Mitochondrial superoxide: 250 µM
  MEC ROS: 250 µM
[6]; AdCYP 2C19 4x
  TR: 6.2
  MEC Apoptosis: 250 µM
  MEC Calcium: 100 µM
  MEC MMP: 250 µM
  MEC Mitochondrial superoxide: 250 µM
  MEC ROS: 250 µM
[6]; AdCYP 2C19 10x
  TR: 12.4
  MEC Apoptosis: 100 µM
  MEC Calcium: 75 µM
  MEC MMP: 250 µM
  MEC Mitochondrial superoxide: 50 µM
  MEC ROS: 50 µM
[7]; AdCYP 1A2 1x
  MEC Apoptosis: 250 µM
  MEC Calcium: 500 µM
  MEC MMP: 500 µM
  MEC Mitochondrial superoxide: 75 µM
  MEC ROS: 500 µM
[7]; AdCYP 1A2 4x
  TR: 12.4
  MEC Apoptosis: 250 µM
  MEC Calcium: 500 µM
  MEC MMP: 500 µM
  MEC Mitochondrial superoxide: 50 µM
  MEC ROS: 500 µM
[7]; AdCYP 1A2 10x
  TR: 12.4
  MEC Apoptosis: 125 µM
  MEC Calcium: 50 µM
  MEC MMP: 500 µM
  MEC Mitochondrial superoxide: 50 µM
  MEC ROS: 250 µM
HepG2 cells [8]
  MEC Apoptosis: 500 µM
  MEC Calcium: 500
  MEC MMP: 500
  MEC Mitochondrial superoxide: 500
  MEC ROS: 500
  TR: 1.2
[9]
  Cmax: 6.2 µM
[10]
  Bioactivation: Yes
  Enzyme: major enzyme(s) involved in the bioactivation (denoted as *) or detoxification of the drug: CYP1A2*, CYP2C19*, CYP3A4*
  Toxicity (mechanisms of toxicity): MI, OS
  DILI category: Severe

## C1CCC(C(CC2CCCCN2)C2CCCCC2)CC1 (centres unmarked) [Perhexiline]
HepG2 cells [1]
  IC50: 22.5 µM
[11]; ADV CYP2D6 x1, 24 h, read-out: IC50 (cell viability), ADV dose x1
  IC50: 24.4 µM
[11]; ADV CYP2D6 x4, 24 h, read-out: IC50 (cell viability), ADV dose x4
  IC50: 25.5 µM
[11]; ADV CYP2D6 x10, 24 h, read-out: IC50 (cell viability), ADV dose x10
  IC50: 27.4 µM
[12]; AdCYP 2D6 1x
  TR: 17.6
  MEC Apoptosis: 22.5 µM
  MEC Calcium: 12.5 µM
  MEC Lipids: > 27.5 µM
  MEC MMP: 22.5 µM
  MEC Mitochondrial superoxide: 22.5 µM
  MEC ROS: > 27.5 µM
[12]; AdCYP 2D6 4x
  TR: 17.6
  MEC Apoptosis: 25 µM
  MEC Calcium: 12.5 µM
  MEC Lipids: > 27.5 µM
  MEC MMP: 27.5 µM
  MEC Mitochondrial superoxide: 22.5 µM
  MEC ROS: > 27.5 µM
[12]; AdCYP 2D6 10x
  TR: 17.6
  MEC Apoptosis: 25 µM
  MEC Calcium: 12.5 µM
  MEC Lipids: > 27.5 µM
  MEC MMP: > 27.5 µM
  MEC Mitochondrial superoxide: 22.5 µM
  MEC ROS: > 27.5 µM
HepG2 cells [8]
  MEC Apoptosis: 15 µM
  MEC Calcium: 10
  MEC Lipids: 10
  MEC MMP: 22.5
  MEC Mitochondrial superoxide: 10
  MEC ROS: 25
  TR: 22
[10]
  Bioactivation: No
  Enzyme: major enzyme(s) involved in the bioactivation (denoted as *) or detoxification of the drug: CYP2D6
  Toxicity (mechanisms of toxicity): MI, ST
  DILI category: Severe
